Among the data in PubChem BioAssay AID179 (DTP/NCI, 2004) are EC50, IC50 and outcome values, retold here.

“And” between values parts separate entries of the source, which are not always exact repeats. Equal values may be shown once. The source made the active and inactive calls.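 How the source made its calls: active means compounds giving half or more protection of infected cells from virus-caused growth loss, again on retest; inactive means the rest.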 Where a SMILES comes first, the peptide text is derived from it. [ ]: non-standard residue; d: D form. The star is where a group is joined. ξ: configuration not given here. ξF = NC(Cc1ccccc1)C(=O)O; Cbz = O=C(OCc1ccccc1)*; Aib = CC(C)(N)C(=O)O

The test system of the assay is CEM cells HIV-1 protection, formazan growth assay. In words: NCI AIDS Antiviral Assay. To be noted: for IC50: measured here: growth of uninfected CEM cells. Put shortly:
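Five concentrations of each compound were applied to infected and uninfected human CEM cells. Protection from HIV-1 was judged from growth measured with a soluble formazan assay.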

For `C/C(=N\O)[C@H]1CC[C@H]2[C@@H]3CCC4=C/C(=N/O)CC[C@]4(C)[C@H]3C(=O)C[C@]12C`, the EC50 was greater than 200 µM and the half-maximal inhibitory concentration (IC50) turned out to be 39.8 µM.

As for `Cc1ccc(SC/C(=C\CS(=O)(=O)c2ccc(C)cc2)S(=O)(=O)c2ccc(Br)cc2)cc1`, the result was inactive.

`CC1CCCOc2ccc(cc2)C=Nc2ccc(cc2)CCc2ccc(cc2)N=Cc2ccc(cc2)OCCC1` (stereo not drawn): the EC50 was greater than 200 µM and the IC50 was greater than 200 µM.

Turning to `Cc1ncc([N+](=O)[O-])n1CCn1ccnc1[N+](=O)[O-]`, the EC50 was greater than 200 µM and the IC50 was greater than 200 µM.

For `Cn1c(=O)nc2n(-c3cccc(Cl)c3)c3ccccc3nc-2c1=O`, the outcome was inactive.

For the compound `CN(C)c1ccc(/C=C/c2sc3ccccc3[n+]2C)cc1`, the EC50 was greater than 47.9 µM and the IC50 was determined as 0.575 µM.

On to `Oc1ccc(-c2nc(=S)[nH][nH]2)cc1`, for which the EC50 was greater than 933 µM and the IC50 came out at 72.4 µM.

With `COc1cc(OC)c(C2(c3c(OC(C)C)c(=O)c3=O)SCCCS2)cc1OC`, the EC50 was greater than 200 µM and the half-maximal inhibitory concentration (IC50) worked out at 170 µM.

For `C/C(=N\NC(=O)CC#N)C(CN1CCCCC1)C(c1ccccc1)c1c(O)c2ccccc2oc1=O` (stereo not drawn), the EC50 is greater than 70.8 µM and the IC50 came to 40.7 µM.

For `COc1cc(C)c2c(=O)c3c(oc2c1)C(=O)c1c(OC)c(OC)cc(OC)c1C3=O`, the result was inactive.

With `C1=C(c2ccccc2)NC2=N[C@H]3CCCC[C@@H]3N2C1c1ccccc1` (stereo partly drawn), the EC50 was greater than 126 µM and the 50% inhibitory concentration (IC50) is 8.13 µM.

Turning to `COC(=O)c1ccc(CSc2ccccc2C(=O)O)cc1`, the EC50 was greater than 603 µM and the half-maximal inhibitory concentration (IC50) came to 427 µM.

As for `COc1cccc2c1C(=O)c1c(O)c3c(c(O)c1C2=O)C[C@@](O)(C(=O)CO)C[C@@H]3OC1CC(N2CCOCC2C#N)C(O)C(C)O1` (stereo partly drawn), the EC50 is greater than 15.5 µM and the IC50 is 0.00501 µM.

Turning to `COc1ccc(/C(=N/O)c2ccccc2-c2nc3ccccc3c(=O)n2-c2ccc(S(=O)(=O)Nc3ncccn3)cc2)cc1C`, the EC50 is greater than 200 µM and the IC50 stood at 49 µM.

Take `O=COC1CC(n2ccc(=O)[nH]c2=O)OC1CO` (stereo not drawn): the EC50 is greater than 4570 µM and the half-inhibitory concentration (IC50) amounted to 263 µM.

On to `CCN(CC)C1=NS(=O)(=O)c2ccccc2C(SC)=C1C`, for which the EC50 was greater than 275 µM and the 50% inhibitory concentration (IC50) was greater than 275 µM.

On to `CCOC(=O)Cc1nn2c(=O)cc(C)nc2s1`, for which the EC50 is greater than 200 µM and the half-maximal inhibitory concentration (IC50) was greater than 200 µM.

Regarding `COc1ccc(C2C3CCCC(C3=O)C(c3ccc(OC)cc3)N2N=O)cc1` (stereo not drawn), the EC50 was greater than 19.1 µM and the half-inhibitory concentration (IC50) is greater than 19.1 µM.

Turning to `Cc1coc2c1C[C@@]1(C)[C@H](CCC[C@@H]1C)[C@H]2O`, the EC50 is greater than 200 µM and the IC50 came out at 27.5 µM.

For the compound `c1ccc(NNN2NC(c3ccccc3)C2c2ccccc2)cc1` (stereo not drawn), the EC50 was greater than 200 µM and the half-maximal inhibitory concentration (IC50) is greater than 200 µM.

Take `Cc1ccc(S(=O)(=O)NC(=S)S)cc1`: the EC50 is greater than 200 µM and the IC50 is greater than 200 µM.

Turning to `COC(=O)C(=O)C(C(=O)C(=O)Nc1ccc([N+](=O)[O-])cc1)c1nc2ccccc2[nH]c1=O` (stereo not drawn), the EC50 is greater than 575 µM and the IC50 was determined as 72.4 µM.

For the compound `CCn1c(-c2ccc(C)cc2)cs/c1=N\C(P(=O)(O)O)P(=O)(O)O`, the EC50 was greater than 50.1 µM and the IC50 was greater than 50.1 µM.

`CCOC(=O)/C(=C(\C)N)C1CC(=O)NC1=O` (stereo not drawn): the EC50 was greater than 200 µM and the 50% inhibitory concentration (IC50) amounted to 107 µM.

In the case of `COc1ccc(C(=C(C#N)C#N)c2ccc(OC)cc2)cc1`, the outcome was inactive.

Turning to `CN1C(=O)C(O)Nc2ncncc21` (stereo not drawn), the EC50 was greater than 200 µM and the 50% inhibitory concentration (IC50) turned out to be 32.4 µM.

For the compound `Clc1ccc(/C(=C/c2ccccc2)Cn2ccnc2)cc1`, the EC50 is greater than 200 µM and the concentration for half-maximal inhibition (IC50) came to 35.5 µM.

As to `O=C(O)c1ccccc1/C=N/NC1=CS(=O)(=O)C=C1`, the result was inactive.

For `CCc1ccccc1NC(=O)C1=C(C)NC(C)=C(C(=O)Nc2c(CC)cccc2CC)C1c1ccc2c(c1)OCO2` (stereo not drawn), the EC50 was greater than 33.9 µM and the half-maximal inhibitory concentration (IC50) is greater than 33.9 µM.

On to `CCCCN(CC)C(=O)COc1cc2c(O)c3c(O)c(C)c4c(c13)C(=O)C(C)(O/C=C\C(OC)C(C)C(OC(C)=O)C(C)C(O)C(C)C(O)C(C)/C=C\C=C(\C)C(=O)N2)O4` (stereo not drawn), for which the outcome was inactive.

Take `COC1=CC(=O)C2[C@H]3Cc4ccccc4[C@H]3C2(C)C1=O` (stereo partly drawn): the EC50 is greater than 51.3 µM and the half-maximal inhibitory concentration (IC50) is greater than 51.3 µM.

Consider `CCOC(=O)[C@]12C3C=CC(C3)C1C(=O)C1OC12` (stereo partly drawn), for which the EC50 was greater than 562 µM and the IC50 was greater than 562 µM.

As to `O=C(CCc1n[nH]c(=S)o1)Nc1cc(Cl)c(Cl)cc1Cl`, the result was inactive.

In the case of `Nc1cc(N)[nH]c(=S)n1`, the outcome was inactive.

Take `OC1c2ccccc2C2(O)C1C(c1ccccc1)C(c1ccccc1)C2(O)c1ccccc1` (stereo not drawn): the result was inactive.

For the compound `CC(=O)OC1CC2OC2(C)C2[C@H](O)C34O[C@@]3(C)C(=O)O[C@H]4/C=C(/C)C[C@H](OC(C)=O)[C@H](OC(C)=O)[C@@]12C` (stereo partly drawn), the EC50 was greater than 123 µM and the IC50 was 75.9 µM.

For `COc1cc(NCCN=C(N)NC#N)c2ncccc2c1`, the EC50 is greater than 126 µM and the IC50 turned out to be 89.1 µM.

As for `[O-]c1c[n+](C23CCC(c4ccccc42)c2ccccc23)no1`, the EC50 is greater than 200 µM and the 50% inhibitory concentration (IC50) came to 97.7 µM.

In the case of `O[C@H]1[C@H](O)[C@@H](Cn2nnc(-c3ccccc3)c2-c2ccccc2)OCO[C@@H]1Cn1nnc(-c2ccccc2)c1-c1ccccc1`, the EC50 was greater than 200 µM and the half-inhibitory concentration (IC50) worked out at 9.55 µM.

`CC(=O)CC(c1ccc2c(c1)OCO2)c1c(O)c2ccccc2oc1=O` (stereo not drawn): the EC50 was greater than 200 µM and the concentration for half-maximal inhibition (IC50) was 135 µM.

As to `O=C1c2ccc(O)cc2OC(c2ccc(O)c(O)c2)C1O` (stereo not drawn), the EC50 is greater than 200 µM and the 50% inhibitory concentration (IC50) is 93.3 µM.

With `CCCCCC[P+](c1ccccc1)(c1ccccc1)c1ccccc1`, the EC50 was greater than 200 µM and the concentration for half-maximal inhibition (IC50) was 0.741 µM.

Consider `CC(O)(C(=O)N(O)c1ccc(Cl)cc1)c1ccc(Cl)cc1` (stereo not drawn), for which the EC50 is greater than 20 µM and the half-maximal inhibitory concentration (IC50) stood at 17.8 µM.

As to `COc1ccccc1-n1nnc2c(N)nc(N)nc21`, the EC50 was greater than 200 µM and the half-maximal inhibitory concentration (IC50) was greater than 200 µM.

On to `CCOc1ccc(/C=C2/C(=O)N=C(NC(C)=O)N2C)cc1`, for which the EC50 is greater than 200 µM and the IC50 is greater than 200 µM.

On to `Cc1cc2c(cc1Cl)SC(NNC(=O)c1ccncc1)=NS2(=O)=O`, for which the EC50 is greater than 200 µM and the concentration for half-maximal inhibition (IC50) is greater than 200 µM.

For the compound `Cc1cccc(N2C(=O)C=C(NC(CC(C)C)c3nc4ccccc4[nH]3)C2c2ccccc2)c1` (stereo not drawn), the EC50 is greater than 200 µM and the half-inhibitory concentration (IC50) came to 17 µM.

`CN(/N=C/c1ccccn1)C1=NCCCN1`: the EC50 was greater than 200 µM and the IC50 is greater than 200 µM.

Take `Cc1cc(=O)c2c([nH]1)c1c(c3[nH]c(C)cc(=O)c32)Oc2ccccc2O1`: the EC50 is greater than 129 µM and the concentration for half-maximal inhibition (IC50) came out at 93.3 µM.

For `COc1cc(/C=N/c2nncs2)ccc1O`, the EC50 is greater than 79.4 µM and the half-inhibitory concentration (IC50) was greater than 79.4 µM.

For the compound `Cc1ccc(NC(=O)CC/C(CC(=O)c2ccc(Cl)cc2)=N\NC(=O)C(=O)NN)cc1C`, the EC50 is greater than 8.32 µM and the IC50 was greater than 8.32 µM.

As for `O=C(O)C1=C(C(=O)Nc2ccccc2)C2C=CC1C2` (stereo not drawn), the EC50 was greater than 977 µM and the IC50 came out at 214 µM.

Regarding `CCOC(=O)CNC(=O)C(Cc1ccccc1)NC(=O)C(C)(C)NC(=O)OCc1ccccc1` (stereo not drawn) (Cbz-[Aib]-[ξF]-Gly-OEt), the EC50 was greater than 200 µM and the IC50 came to 95.5 µM.

In the case of `O=C(c1nc2ccccc2[nH]c1=O)C(O)c1ccco1` (stereo not drawn), the EC50 was greater than 794 µM and the IC50 was found to be 380 µM.

On to `COC(=O)/C=C\COCC1C2CCC(=O)C21` (stereo not drawn), for which the EC50 was greater than 50.1 µM and the IC50 was 28.2 µM.

Regarding `Cc1cc(O)c(C(C)C)cc1NC(=O)Nc1cccc2ccccc12`, the EC50 was greater than 56.2 µM and the IC50 was 40.7 µM.

With `CCOC(=O)/C=C1\CCCn2c1ncc(C(=O)OCC)c2=O`, the EC50 was greater than 200 µM and the 50% inhibitory concentration (IC50) was determined as 3.63 µM.

With `CCc1c(O)c(O)c(C(C)=O)c2c(O)c(-c3c(C)cc4c(CC)c(O)c(O)c(C(C)=O)c4c3O)c(C)cc12`, the EC50 was greater than 69.2 µM and the IC50 turned out to be 2.24 µM.

On to `Cc1cc2c(c3[nH]c4ccccc4c13)C(=O)c1ccccc1C2=O`, for which the EC50 is greater than 3.39 µM and the IC50 was greater than 3.39 µM.

For `c1ccc(CCn2cncn2)cc1`, the EC50 is greater than 1200 µM and the half-maximal inhibitory concentration (IC50) was greater than 1200 µM.

For `CCOC(=O)c1ccc(N2C(=O)/C(=C\OC)c3ccccc3C2=O)cc1`, the result was inactive.

In the case of `O=P(O)(CN(C1CCCCC1)C1CCCCC1)CN(C1CCCCC1)C1CCCCC1`, the EC50 is 178 µM and the IC50 was greater than 200 µM.

On to `O=NNc1ccc(S(=O)(=O)c2ccc3ccccc3c2)cn1`, for which the EC50 was greater than 200 µM and the IC50 is 112 µM.

As to `CSC1CC2C(CC1(C)O)C2(C)C` (stereo not drawn), the EC50 was greater than 200 µM; the IC50 was 162 µM and > 200 µM.

As for `CC(=O)OC1CC2C(C)(CCC3C2(C)CCC2(C)C4CC(C)(C)CCC4(C)CCC32C)C1C` (stereo not drawn), the EC50 was greater than 200 µM and the IC50 was found to be 145 µM.

Take `OCC1CCCC1O` (stereo not drawn): the outcome was inactive.

With `COC(=O)c1onc(-c2c(OC)cc(OC)cc2OC)c1C(=O)OC`, the EC50 was greater than 141 µM and the half-inhibitory concentration (IC50) stood at 115 µM.

For the compound `Nc1c(Cl)cccc1-c1c[nH]cc1Cl`, the EC50 is greater than 794 µM and the half-inhibitory concentration (IC50) was greater than 100 µM.

As to `CCN(CC)CC1CCCCCCCCCCC1=O` (stereo not drawn), the outcome was inactive.

For the compound `CN(C)c1ccc2c(c1)C(=O)N(OS(=O)(=O)c1ccccc1)C2=O`, the outcome was inactive.

With `N#CN=C(N)c1sc2nc3c(c(-c4ccc(Br)cc4)c2c1N)CCCC3`, the EC50 was greater than 200 µM and the half-inhibitory concentration (IC50) amounted to 7.08 µM.

With `CCCCNC1=C(C(=O)OCC)C(=O)CO1`, the EC50 is greater than 794 µM and the IC50 stood at 447 µM.

As to `O=C1NC(=O)C(CN2C(=O)/C(=C/c3cccc(O)c3)SC2=S)C(=O)N1`, the EC50 was greater than 200 µM and the IC50 stood at 91.2 µM.

The EC50 is the concentration that produces a half-maximal response. As a reminder, the IC50 is the concentration that inhibits the measured activity by half.
